Patent EP4467137A1, “TREATMENT OF FRONTOTEMPORAL DEMENTIA OR FRONTOTEMPORAL LOBAR DEMENTIA” (Universidad Autónoma de Madrid, priority 2023, dated 2024)

Experiments:
hyperphosphorylated tau = experiment: In vivo hTauP301L model: hippocampal hyperphosphorylated tau by AT8 and AT180 immunofluorescence; design: species or system mouse; settings: 35 days
Experimental: In vivo hTau301L model was induced by stereotaxic injection of AAV-hTauP301L (AAV-hTau) particles as described in [Luengo, Enrique et al. "Implication of type 4 NADPH oxidase (NOX4) in tauopathy." Redox biology vol. 49 (2022): 102210. doi:10.1016/j.redox.2021.102210 ]. Control animals were injected with AAV-GFP. Evaluation of hyperphosphorylated tau in sarkosyl soluble and insoluble fractions; microgliosis; AT8 and AT180 by immunofluorescence; and cognitive test were performed as described previously [Luengo, Enrique et al. "Implication of type 4 NADPH oxidase (NOX4) in tauopathy." Redox biology vol. 49 (2022): 102210. doi:10.1016/j.redox.2021.102210 ].
Oral administration of Compound 1 at different dosages (20 mg·kg^-1 and 50 mg·kg^-1) was administered embedded in gelatine. The compound was given in a mixture of 10 % gelatine from porcine skin and 10 % sucralose in water, heated in a microwave oven. Before Compound 1 addition, gelatine mixture was left at RT. Afterwards, the compound was added, evenly mixed and plated 1 mL·well^-1 in a P24 plate. Before AAV injection, mice were trained to eat the gelatines by giving them one gelatine (without compound) per day for 4 consecutive days. After AAV injection, mice were treated once a day with control or Compound 1 gelatines for 35 consecutive days. This approach was followed in adult (3-4 months old) and aged (16-18 months old) mice injected with AAV-GFP or AAV-hTauP301L.
Example 2.5. Compound 1 ameliorates hTauP301L induced FTD and cognitive decline in adult (3-4 months old) mice. FTD was generated in adult male and female C57BL/6J mice (3-4 months old) by bihippocampal injection of AAV-hTau particles containing the P301L mutation. Mice were treated orally once a day with a single dose of 20 or 50 mg/kg of Compound 1 formulated in gelatines the day after stereotaxic delivery of AAVs (GFP or TauP301L, to controls and FTD, respectively). After 35 days treatment, hyperphosphorylated tau levels were evaluated by immunofluorescence and by WB in soluble and insoluble in sarkosyl fractions. Also, behavioural tests were conducted to study the cognition status of the mice.
Hyperphosphorylated tau levels measured with the antibodies AT8 (p-Ser202/p-Thr205) and AT180 (p-Thr231) were analysed by immunofluorescence in fixed postmortem brain slices of treated mice (Figure 7A).
Example 2.6. Compound 1 ameliorates hTauP301L induced FTD and cognitive decline in aged (16-18 months old) mouse. To include the aging effect in the FTD model, the previous experiments were replicated in male and female 16-18 months old C57/BL6J mice.

[1] = Oxygen Radical Absorbance Capacity Assay (ORAC); assay type: physicochemical; settings: ORAC > 1.0 is a better ROS scavenger than trolox
Experimental: The Oxygen Radical Absorbance Capacity Assay (ORAC) was performed as described [Herrera-Arozamena, Clara et al. "Resveratrol-Based MTDLs to Stimulate Defensive and Regenerative Pathways and Block Early Events in Neurodegenerative Cascades." Journal of medicinal chemistry vol. 65,6 (2022): 4727-4751. doi:10.1021/acs.jmedchem.1c01883].

[2] = adult (3-4 months old) mice, 50 mg/kg/day oral
[3] = aged (16-18 months old) mice, 50 mg/kg oral

## COc1ccc2c(c1)CC(c1c[nH]c3ccc(OC)cc13)N2 (centres unmarked) [Compound 1, 5-Methoxy-3-(5-methoxyindolin-2-yl)-1H-indole]
Hyperphosphorylated tau; [2]
  AT8 fluorescence in hippocampus (DG, CA1 and CA3): significantly reduced
  AT180 fluorescence in hippocampus (DG, CA1 and CA3): significantly reduced
Hyperphosphorylated tau; [3]
  hyperphosphorylated tau levels by AT8 in DG, CA3 and CA1: reduced
  hyperphosphorylated tau levels by AT180 in DG, CA3 and CA1: reduced
[1]
  ORAC (trolox equiv.): 2.3 ± 0.3 trolox equiv.
